Laboratory results from patent publication US20260083767A1, “SOLID DOSAGE FORM OF A SMALL MOLECULE ANTIVIRAL AND USES THEREOF” (Merck Sharp & Dohme LLC, priority 2022, published 2026).
Read-outs that look alike come from different tables or passages of the source.

Assays:
[1] = non-human primates; cited from earlier work
[2] = Aqueous solubility and wettability of Compound A; format: physicochemical
Source text: As the levels of Compound A increases in the formulation, the flow properties of the pre-roller compaction powder blend worsens due to the cohesive nature of the material. […] As the levels of Compound A increases in the formulation, the property of the powder blend is dominated by the properties of Compound A, resulting in poor wettability, dispersibility and uniformity in water. Accordingly, the proportion of Compound A in the formulations having desirable properties is limited.

[3] = species not stated; cited from earlier work

| Structure (SMILES) | oral bioavailability [1] | aqueous solubility [2] | wettability in aqueous media ([2]; aqueous media) | oral bioavailability [3] |
| --- | --- | --- | --- | --- |
| O=c1nc(NO)ccn1[C@@H]1O[C@H](CO)[C@@H](O)[C@H]1O [NHC, 1-((2R,3R,4S,5R)-3,4-dihydroxy-5-(hydroxymethyl)tetrahydrofuran-2-yl)-4-(hydroxyamino)pyrimidin-2 (1H)-one] | limited | – | – | – |
| CC(C)C(=O)OC[C@H]1O[C@@H](n2ccc(NO)nc2=O)[C@H](O)[C@@H]1O [Compound A, {(2R,3S,4R,5R)-3,4-dihydroxy-5-[4-(hydroxyimino)-2-oxo-3,4-dihydropyrimidin-1 (2H)-yl]oxolan-2-yl}methyl 2-methylpropanoate] | – | good | poor | orally bioavailable |
